Measurements from paper PMC12116762, “Topobexin targets the Topoisomerase II ATPase domain for beta isoform-selective inhibition and anthracycline cardioprotection” (Nature Communications, 2025).
Values joined by “and” are separate entries in the source; they are usually repeats but may differ in a detail not shown here. Equal entries are not always repeated. Where two headings read alike, the source gives them in different places.

Assays:
[1] = target: T1, recombinant human TOP2A (Homo sapiens, UniProt P11388); assay: In vitro ATPase activity of TOP2A (coupled assay); format: biochemical; conditions: for IC50: n=3
T1 construct: Using recombinant full-length human TOP2A and TOP2B enzymes; YFP (N, cleaved yes); made in house; host or cells: HEK293F
T1 sequence (P11388 whole entry): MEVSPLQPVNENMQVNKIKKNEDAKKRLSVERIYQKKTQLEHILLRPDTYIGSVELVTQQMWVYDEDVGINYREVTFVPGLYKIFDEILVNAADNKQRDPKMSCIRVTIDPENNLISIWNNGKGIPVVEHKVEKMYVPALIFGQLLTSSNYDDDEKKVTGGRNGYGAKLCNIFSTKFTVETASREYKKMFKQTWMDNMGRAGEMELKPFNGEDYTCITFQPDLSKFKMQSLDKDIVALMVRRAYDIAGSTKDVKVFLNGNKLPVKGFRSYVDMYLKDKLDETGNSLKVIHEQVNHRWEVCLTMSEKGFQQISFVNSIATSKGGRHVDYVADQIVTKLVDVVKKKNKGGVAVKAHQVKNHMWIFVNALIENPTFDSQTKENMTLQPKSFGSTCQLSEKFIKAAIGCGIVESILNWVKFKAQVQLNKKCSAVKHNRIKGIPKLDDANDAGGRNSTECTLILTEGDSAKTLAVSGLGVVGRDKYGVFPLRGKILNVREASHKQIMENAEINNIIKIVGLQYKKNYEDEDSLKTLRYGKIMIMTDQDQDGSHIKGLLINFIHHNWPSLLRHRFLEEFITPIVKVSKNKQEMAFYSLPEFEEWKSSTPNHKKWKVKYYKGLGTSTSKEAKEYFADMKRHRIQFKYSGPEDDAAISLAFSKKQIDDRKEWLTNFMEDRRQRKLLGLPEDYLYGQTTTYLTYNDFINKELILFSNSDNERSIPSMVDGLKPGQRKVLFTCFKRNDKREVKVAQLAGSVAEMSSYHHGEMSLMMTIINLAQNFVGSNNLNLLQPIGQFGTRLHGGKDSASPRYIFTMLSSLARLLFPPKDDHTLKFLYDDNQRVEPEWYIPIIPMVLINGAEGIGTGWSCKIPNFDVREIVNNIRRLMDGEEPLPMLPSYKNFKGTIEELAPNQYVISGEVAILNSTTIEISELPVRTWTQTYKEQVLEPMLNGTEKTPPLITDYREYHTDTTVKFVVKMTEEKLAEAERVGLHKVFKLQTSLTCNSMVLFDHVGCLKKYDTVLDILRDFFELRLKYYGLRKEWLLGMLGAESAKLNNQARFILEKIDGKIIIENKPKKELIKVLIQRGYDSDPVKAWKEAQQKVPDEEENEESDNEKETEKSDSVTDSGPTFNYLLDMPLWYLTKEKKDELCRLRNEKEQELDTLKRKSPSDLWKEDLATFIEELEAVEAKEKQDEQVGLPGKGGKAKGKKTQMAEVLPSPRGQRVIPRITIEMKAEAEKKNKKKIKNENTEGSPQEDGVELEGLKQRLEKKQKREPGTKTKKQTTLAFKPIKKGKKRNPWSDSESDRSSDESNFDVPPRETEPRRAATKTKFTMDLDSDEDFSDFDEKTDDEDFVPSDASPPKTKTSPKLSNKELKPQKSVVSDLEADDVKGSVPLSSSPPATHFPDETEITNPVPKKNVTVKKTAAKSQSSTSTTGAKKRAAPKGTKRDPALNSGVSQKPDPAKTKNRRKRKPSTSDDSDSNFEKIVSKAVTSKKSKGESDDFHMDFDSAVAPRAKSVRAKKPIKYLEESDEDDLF
Description: Topoisomerase proteins were diluted to 500 nM in storage buffer containing 20 mM HEPES pH 7.5, 500 mM NaCl, 0.5 mM TCEP, 25% glycerol, and 0.2 mg/mL BSA prior to use. A coupled assay was used to measure TOP2-catalyzed ATP hydrolysis in vitro[37] in Costar 96-well plates (Corning Incorporated). […] Reaction plates were pre-warmed to 30 °C for 5 min and ATP was added last to initiate the reaction. The reaction plate was placed in a CLARIOstarPlus plate reader (BMG Labtech) to measure NADH fluorescence at 30 °C every 30 s over 120 cycles using a 340-60 excitation filter and a 480-100 emission filter. Background fluorescence signals calculated from wells containing no ATP were subtracted from each measurement. The slope of NADH fluorescence decay in each well was calculated using the MARS software (BMG Labtech) and reaction wells that lacked topoisomerase inhibitor to account for photobleaching of NADH fluorescence served as background subtraction. Each presented data point was obtained from distinct sample. Values were normalized to untreated controls and plotted as a function of inhibitor concentration to determine IC50 values using Prism 9 (GraphPad).

[2] = system: neonatal rat ventricular cardiomyocytes (NVCM); assay: Inherent toxicity (LDH release) in NVCM; format: cell-based; parameters: key to LDH release (inherent toxicity), mean of independent replicates: % of total LDH activity; conditions: NVCM; for LTC = lowest toxic concentration: compound alone, n=4; for LDH release (inherent toxicity), mean of independent replicates: Suppl.Fig.4
In short: (§1)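 Primary neonatal Wistar rat cardiomyocytes in serum- and pyruvate-free DMEM/F12 were pretreated with compound 3 h, then co-incubated 3 h with DAU (1.2 µM), or without DAU for inherent toxicity, then given a 48 h drug-free follow-up. Medium LDH activity (NAD+ reduction at 340 nm) expressed as % of total LDH.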

[3] = system: neonatal rat ventricular cardiomyocytes (NVCM); assay: Protection against DAU-induced cytotoxicity (LDH release) in NVCM; format: cell-based; parameters: key to Suppl.Fig.3 DAU-induced cytotoxicity (LDH release) in NVCM, mean of independent replicates / LDH release (DAU-induced cytotoxicity), mean of independent replicates: % of total LDH activity; conditions: for minimal effective concentration: protection against DAU 1.2 µM, n=4, read-out: LEC = lowest effective concentration; for LDH release: independent replicates
In short: as §1

Structure (SMILES)	IC50 [1]	LTC = lowest toxic concentration [2]	LDH release (inherent toxicity), mean of independent replicates ([2]; compound alone 0.01 µM)	LDH release (inherent toxicity), mean of independent replicates ([2]; compound alone 0.1 µM)	LDH release (inherent toxicity), mean of independent replicates ([2]; compound alone 1 µM)	LDH release (inherent toxicity), mean of independent replicates ([2]; compound alone 10 µM)	LDH release, mean ([3]; compound 0.01 µM + DAU 1.2 µM)	Suppl.Fig.3 DAU-induced cytotoxicity (LDH release) in NVCM, mean of independent replicates ([3]; compound 0.01 µM + DAU 1.2 µM)	LDH release ([3]; compound 0.01 µM + DAU 1.2 µM)	LDH release, mean ([3]; compound 0.1 µM + DAU 1.2 µM)	Suppl.Fig.3 DAU-induced cytotoxicity (LDH release) in NVCM, mean of independent replicates ([3]; compound 0.1 µM + DAU 1.2 µM)	LDH release ([3]; compound 0.1 µM + DAU 1.2 µM)	LDH release, mean ([3]; compound 1 µM + DAU 1.2 µM)	Suppl.Fig.3 DAU-induced cytotoxicity (LDH release) in NVCM, mean of independent replicates ([3]; compound 1 µM + DAU 1.2 µM)	LDH release ([3]; compound 1 µM + DAU 1.2 µM)	LDH release, mean ([3]; compound 10 µM + DAU 1.2 µM)	Suppl.Fig.3 DAU-induced cytotoxicity (LDH release) in NVCM, mean of independent replicates ([3]; compound 10 µM + DAU 1.2 µM)	LDH release ([3]; compound 10 µM + DAU 1.2 µM)	also measured
CCCc1cc(=O)oc2c(C(=O)N3CCCc4ccccc43)c(OCCO)ccc12 [5c]	1.54 µM	100 µM	14.5952	14.7832	14.0641	18.571	43.3429 % of total LDH	43.3429	38.8043 % of total LDH and 44.6863 % of total LDH and 52.1182 % of total LDH and 37.7626 % of total LDH	37.9008 % of total LDH	37.9008	31.4509 % of total LDH and 46.2465 % of total LDH and 39.969 % of total LDH and 33.9368 % of total LDH	32.4872 % of total LDH	32.4872	27.3874 % of total LDH and 32.0086 % of total LDH and 42.6349 % of total LDH and 27.9179 % of total LDH	26.8851 % of total LDH	26.8851	22.9974 % of total LDH and 24.3605 % of total LDH and 29.85 % of total LDH and 30.3325 % of total LDH	remaining activity at 0.03125 µM ([1]; 0.03125 μM, independent replicates, read-out: Normalized % TOP2A activity, ATPase): 97.4%; remaining activity at 0.0625 µM ([1]; 0.0625 μM, independent replicates, read-out: Normalized % TOP2A activity, ATPase): 86.8%; remaining activity at 0.125 µM ([1]; 0.125 μM, independent replicates, read-out: Normalized % TOP2A activity, ATPase): 79.9%; remaining activity at 0.25 µM ([1]; 0.25 μM, independent replicates, read-out: Normalized % TOP2A activity, ATPase): 62.7%; remaining activity at 0.5 µM ([1]; 0.5 μM, independent replicates, read-out: Normalized % TOP2A activity, ATPase): 45.9%; remaining activity at 1 µM ([1]; 1 μM, independent replicates, read-out: Normalized % TOP2A activity, ATPase): 25.8%; remaining activity at 2 µM ([1]; 2 μM, independent replicates, read-out: Normalized % TOP2A activity, ATPase): 11.6%; remaining activity at 4 µM ([1]; 4 μM, independent replicates, read-out: Normalized % TOP2A activity, ATPase): 6.58%; remaining activity at 8 µM ([1]; 8 μM, independent replicates, read-out: Normalized % TOP2A activity, ATPase): 3.17%; LDH release (inherent toxicity), mean of independent replicates ([2]; compound alone 30 µM): 18.0914; LDH release (inherent toxicity), mean of independent replicates ([2]; compound alone 100 µM): 21.5856; concentration providing significant cardioprotection ([3]; NVCM, DAU 1.2 µM): ≥ 0.1 µM; minimal effective concentration ([3]; Rattus norvegicus, Cardiomyocyte, NVCM): 0.1 µM; LDH release, mean ([3]; compound 30 µM + DAU 1.2 µM): 27.5762 % of total LDH; Suppl.Fig.3 DAU-induced cytotoxicity (LDH release) in NVCM, mean of independent replicates ([3]; compound 30 µM + DAU 1.2 µM): 27.5762; LDH release ([3]; compound 30 µM + DAU 1.2 µM): 24.4062 % of total LDH and 28.0233 % of total LDH and 28.184 % of total LDH and 29.6914 % of total LDH; LDH release, mean ([3]; compound 100 µM + DAU 1.2 µM): 31.1384 % of total LDH; Suppl.Fig.3 DAU-induced cytotoxicity (LDH release) in NVCM, mean of independent replicates ([3]; compound 100 µM + DAU 1.2 µM): 31.1384; LDH release ([3]; compound 100 µM + DAU 1.2 µM): 22.9096 % of total LDH and 39.1124 % of total LDH and 31.4385 % of total LDH and 31.093 % of total LDH
CCCc1cc(=O)oc2c(C(=O)N3CCCc4ccccc43)c(OC)cc(OC)c12 [BNS-22]	1.27 µM	> 10 µM	12.6739	12.9938	12.9269	16.9772	38.9374 % of total LDH	38.9374	36.8796 % of total LDH and 42.975 % of total LDH and 39.3894 % of total LDH and 36.5057 % of total LDH	33.1153 % of total LDH	33.1153	30.1987 % of total LDH and 38.5314 % of total LDH and 34.1236 % of total LDH and 29.6074 % of total LDH	28.1702 % of total LDH	28.1702	24.6443 % of total LDH and 29.0885 % of total LDH and 32.0729 % of total LDH and 26.875 % of total LDH	23.9768 % of total LDH	23.9768	25.2929 % of total LDH and 19.0756 % of total LDH and 25.4172 % of total LDH and 26.1213 % of total LDH	Normalized % TOP2A activity, ATPase ([1]; 0.03125 μM, independent replicates): 106.5339% and 96.82% and 104.97%; Normalized % TOP2A activity, ATPase ([1]; 0.0625 μM, independent replicates): 99.93% and 96.81% and 104.654%; Normalized % TOP2A activity, ATPase ([1]; 0.125 μM, independent replicates): 97.92% and 87.09% and 103.8686%; Normalized % TOP2A activity, ATPase ([1]; 0.25 μM, independent replicates): 84.39% and 86.41% and 95.01%; Normalized % TOP2A activity, ATPase ([1]; 0.5 μM, independent replicates): 68.7163% and 74.39% and 48.12%; Normalized % TOP2A activity, ATPase ([1]; 1 μM, independent replicates): 44.71% and 47.48% and 56.42%; Normalized % TOP2A activity, ATPase ([1]; 2 μM, independent replicates): 21.32% and 23.49% and 28.53%; Normalized % TOP2A activity, ATPase ([1]; 4 μM, independent replicates): 7.817% and 9.176% and 12.94%; Normalized % TOP2A activity, ATPase ([1]; 8 μM, independent replicates): 4.538% and 5.681% and 5.457%; Normalized % TOP2A activity, ATPase ([1]; 16 μM, independent replicates): 3.325% and 1.312% and 2.254%; Normalized % TOP2A activity, ATPase ([1]; 32 μM, independent replicates): 1.897% and 0.9839% and 2.191%; LDH release (inherent toxicity), mean of independent replicates ([2]; compound alone 3 µM): 14.5033; minimal effective concentration ([3]; NVCM): 1 µM; LDH release, mean ([3]; compound 3 µM + DAU 1.2 µM): 24.9748 % of total LDH; Suppl.Fig.3 DAU-induced cytotoxicity (LDH release) in NVCM, mean of independent replicates ([3]; compound 3 µM + DAU 1.2 µM): 24.9748; LDH release ([3]; compound 3 µM + DAU 1.2 µM): 26.7887 % of total LDH and 18.8271 % of total LDH and 27.1872 % of total LDH and 27.096 % of total LDH
